Results reported in patent US20050123602A1, “Rifalazil formulations” (priority 2003, published 2005).

Assay: Pharmacokinetics after single peroral administration of 5 mg rifalazil, fed and fasted
Format: in vivo, beagle dogs
Conditions: dogs, liquid-filled vs microgranulated
Method: Pharmacokinetic parameters were determined following a single peroral administration of 5 mg of rifalazil in healthy male beagle dogs. The rifalazil was formulated either as a liquid-filled capsule of Example 3 or as a powder-filled capsule containing microgranulated rifalazil as described in U.S. Pat. No. 5,547,683.
Both formulations were administered under fed and fasted conditions. All animals were fasted overnight prior to dosing. Animals designated as “fed” were administered a blended combination of dog chow and water in a 1:3 ratio (e.g. 250 g chow and 750 g water) via oral gavage at a dose volume of 20 mL/kg within approximately 30 minutes prior to dosing and food was provided Ad-libitum after approximately 4 hours following dosing. Animals in “fasted” groups were not fed prior to dosing and food was withheld until after approximately 4 hours after dosing. […]
Pharmacokinetic endpoints and parameters were calculated by noncompartmental analysis (NCA) using WinNonlin®.
The pharmacokinetic parameters Tmax, Cmax, AUCt, AUC∞, T1/2 (elimination), and F (bioavailability) were calculated as well as the coefficient of variation (CV) in each. […]

CO[C@H]1/C=C/O[C@@]2(C)Oc3c(C)c(O)c4c(=O)c(c5oc6cc(N7CCN(CC(C)C)CC7)cc(O)c6nc-5c4c3C2=O)NC(=O)/C(C)=C\C=C\[C@H](C)[C@H](O)[C@@H](C)[C@@H](O)[C@@H](C)[C@H](OC(C)=O)[C@@H]1C [rifalazil, Rifalazil]
effect of changes in the formulation upon elimination half-life (T1/2): no effect
